Results as given in PMC12594171, “DKK3-LRP1 complex and a chemical inhibitor regulate Aβ clearance in models of Alzheimer’s disease” (Science Advances, 2025).
pKd: −log10 of the molar value.

Biological target: low-density lipoprotein receptor-related protein 1 (LRP1), minireceptor mLRPIV (Homo sapiens, UniProt Q07954)
Assay: SPR (Biacore T200, mLRPIV immobilized on CM5 chip); also inhibits DKK3 binding to mLRPIV by SPR, IC50 […]

low-density lipoprotein receptor-related protein 1 (LRP1), minireceptor mLRPIV, sequence (Q07954 3331-3778 limits assumed): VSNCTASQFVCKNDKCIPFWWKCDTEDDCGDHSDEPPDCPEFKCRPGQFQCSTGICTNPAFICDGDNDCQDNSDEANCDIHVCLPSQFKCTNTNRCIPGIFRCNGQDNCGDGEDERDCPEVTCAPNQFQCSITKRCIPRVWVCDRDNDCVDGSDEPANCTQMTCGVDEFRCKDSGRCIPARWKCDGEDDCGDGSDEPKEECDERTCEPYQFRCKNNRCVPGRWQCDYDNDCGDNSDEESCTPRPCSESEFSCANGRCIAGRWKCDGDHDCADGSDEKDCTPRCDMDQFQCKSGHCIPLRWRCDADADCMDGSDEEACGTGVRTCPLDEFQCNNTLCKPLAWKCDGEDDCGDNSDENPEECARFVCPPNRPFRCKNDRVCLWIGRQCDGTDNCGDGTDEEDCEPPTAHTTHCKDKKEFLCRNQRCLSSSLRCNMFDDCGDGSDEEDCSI

- pKd: 5.10
SMILES: Cc1nn(-c2ccc(F)cc2)c(C)c1CNC1CCN(C2CC2)CC1 [SJ-300]
